Consider six compounds from ChEMBL document CHEMBL5465560, “Selectivity Literature for EUbOPEN Chemogenomic Library” (2024).

For test [1], the target named is Serine/threonine-protein kinase SIK1 (Homo sapiens) (UniProt P57059). As to the kind of experiment: Selectivity interaction (Kinase panel (Carna Biosciences)) EUB0001542aTs SIK1. The settings on record: at 1 µM.
The target in test [2] is T1, Inhibitor of nuclear factor kappa-B kinase subunit beta (Homo sapiens) (UniProt O14920).
T1 sequence (whole entry): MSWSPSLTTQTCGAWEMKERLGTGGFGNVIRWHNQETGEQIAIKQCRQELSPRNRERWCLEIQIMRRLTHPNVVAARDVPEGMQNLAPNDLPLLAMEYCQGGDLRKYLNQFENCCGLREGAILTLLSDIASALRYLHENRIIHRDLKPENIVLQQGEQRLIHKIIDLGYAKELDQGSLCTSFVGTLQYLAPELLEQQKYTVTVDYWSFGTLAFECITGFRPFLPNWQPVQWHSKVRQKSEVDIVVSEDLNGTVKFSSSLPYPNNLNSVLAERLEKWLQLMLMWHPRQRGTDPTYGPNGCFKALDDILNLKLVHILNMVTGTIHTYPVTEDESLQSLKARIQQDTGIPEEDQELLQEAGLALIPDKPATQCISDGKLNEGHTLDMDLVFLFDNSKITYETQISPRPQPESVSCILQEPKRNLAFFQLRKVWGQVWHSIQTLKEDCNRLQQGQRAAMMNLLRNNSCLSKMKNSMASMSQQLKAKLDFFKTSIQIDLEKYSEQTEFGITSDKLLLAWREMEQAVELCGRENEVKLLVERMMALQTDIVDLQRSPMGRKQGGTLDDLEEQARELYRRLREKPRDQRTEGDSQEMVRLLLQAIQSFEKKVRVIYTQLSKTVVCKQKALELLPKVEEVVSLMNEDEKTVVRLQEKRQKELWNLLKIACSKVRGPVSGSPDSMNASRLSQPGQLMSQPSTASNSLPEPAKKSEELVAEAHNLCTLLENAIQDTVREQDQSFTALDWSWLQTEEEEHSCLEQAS
As to the kind of experiment: Selectivity interaction (KinomeScan (DiscoverX)) EUB0000607a IKBKB. To be noted: at 10 µM.

The target of test [3] is T2, Serine/threonine-protein kinase Nek9 (Homo sapiens) (UniProt Q8TD19).
T2 sequence (whole entry): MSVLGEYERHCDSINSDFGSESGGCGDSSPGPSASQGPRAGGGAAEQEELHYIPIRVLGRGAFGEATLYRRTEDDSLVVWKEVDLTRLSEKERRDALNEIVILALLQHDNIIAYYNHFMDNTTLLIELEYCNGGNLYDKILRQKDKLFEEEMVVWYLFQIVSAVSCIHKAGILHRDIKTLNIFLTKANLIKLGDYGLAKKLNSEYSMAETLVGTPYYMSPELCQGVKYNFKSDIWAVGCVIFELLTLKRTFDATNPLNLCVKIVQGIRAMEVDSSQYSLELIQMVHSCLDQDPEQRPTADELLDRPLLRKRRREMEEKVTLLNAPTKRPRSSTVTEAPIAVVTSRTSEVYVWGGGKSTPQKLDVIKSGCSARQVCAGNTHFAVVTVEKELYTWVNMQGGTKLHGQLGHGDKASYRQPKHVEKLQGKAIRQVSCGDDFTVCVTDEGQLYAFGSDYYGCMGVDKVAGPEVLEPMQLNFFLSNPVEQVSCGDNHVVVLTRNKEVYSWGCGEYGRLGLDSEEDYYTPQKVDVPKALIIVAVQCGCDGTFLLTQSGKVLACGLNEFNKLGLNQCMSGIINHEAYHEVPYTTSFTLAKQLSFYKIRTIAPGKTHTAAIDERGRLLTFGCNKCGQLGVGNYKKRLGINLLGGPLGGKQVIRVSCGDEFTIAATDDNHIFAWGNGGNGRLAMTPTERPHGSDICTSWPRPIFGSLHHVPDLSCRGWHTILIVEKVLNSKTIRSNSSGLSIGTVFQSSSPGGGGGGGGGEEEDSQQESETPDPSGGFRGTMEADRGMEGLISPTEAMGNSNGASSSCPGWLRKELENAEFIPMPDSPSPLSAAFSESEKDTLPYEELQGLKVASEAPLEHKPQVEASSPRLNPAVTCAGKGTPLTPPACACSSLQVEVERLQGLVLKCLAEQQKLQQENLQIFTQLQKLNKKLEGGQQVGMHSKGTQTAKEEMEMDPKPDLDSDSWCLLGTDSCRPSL
To be noted: at 10 µM.

Test [4] has as its target Protein kinase C delta type (Homo sapiens) (UniProt Q05655). Description: Selectivity interaction (KinomeScan (DiscoverX)) EUB0000695a PRKCD. The settings on record: at 100 nM.
In test [5] the target is Histone-lysine N-methyltransferase, H3 lysine-36 specific (Homo sapiens) (UniProt Q96L73). As to the kind of experiment: Selectivity interaction (PWWP, WD40, and Tudor domain panel (DSLS measurements, literature)) EUB0000270b NSD1.
Test [6] concerns the target T3, Serine/threonine-protein kinase TBK1 (Homo sapiens) (UniProt Q9UHD2).
T3 sequence (whole entry): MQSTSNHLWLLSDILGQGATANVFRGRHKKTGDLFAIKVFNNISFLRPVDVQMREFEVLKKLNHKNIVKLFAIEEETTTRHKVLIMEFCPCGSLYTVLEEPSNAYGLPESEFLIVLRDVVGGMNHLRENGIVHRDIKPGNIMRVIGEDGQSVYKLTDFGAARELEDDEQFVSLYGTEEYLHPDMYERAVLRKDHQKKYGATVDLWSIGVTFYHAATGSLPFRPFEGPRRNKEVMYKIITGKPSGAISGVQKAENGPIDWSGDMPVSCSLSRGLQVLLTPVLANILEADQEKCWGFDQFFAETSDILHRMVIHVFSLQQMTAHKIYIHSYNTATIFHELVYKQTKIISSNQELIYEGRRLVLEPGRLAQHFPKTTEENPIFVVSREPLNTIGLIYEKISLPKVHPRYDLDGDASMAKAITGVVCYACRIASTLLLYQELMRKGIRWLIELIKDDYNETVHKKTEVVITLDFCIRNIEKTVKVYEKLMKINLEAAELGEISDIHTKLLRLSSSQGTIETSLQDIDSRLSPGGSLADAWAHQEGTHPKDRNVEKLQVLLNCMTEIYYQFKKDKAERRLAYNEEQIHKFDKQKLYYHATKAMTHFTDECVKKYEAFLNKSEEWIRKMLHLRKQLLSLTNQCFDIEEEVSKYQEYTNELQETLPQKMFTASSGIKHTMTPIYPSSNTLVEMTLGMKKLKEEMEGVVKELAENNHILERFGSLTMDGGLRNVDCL
As to the kind of experiment: Selectivity interaction (Upstate Kinase Profiler service (Millipore)) EUB0000056c TBK1. To be noted: at 1 µM.

Sequence of Protein kinase C delta type (Homo sapiens) (Q05655 whole entry, looked up, the tested form may be a part): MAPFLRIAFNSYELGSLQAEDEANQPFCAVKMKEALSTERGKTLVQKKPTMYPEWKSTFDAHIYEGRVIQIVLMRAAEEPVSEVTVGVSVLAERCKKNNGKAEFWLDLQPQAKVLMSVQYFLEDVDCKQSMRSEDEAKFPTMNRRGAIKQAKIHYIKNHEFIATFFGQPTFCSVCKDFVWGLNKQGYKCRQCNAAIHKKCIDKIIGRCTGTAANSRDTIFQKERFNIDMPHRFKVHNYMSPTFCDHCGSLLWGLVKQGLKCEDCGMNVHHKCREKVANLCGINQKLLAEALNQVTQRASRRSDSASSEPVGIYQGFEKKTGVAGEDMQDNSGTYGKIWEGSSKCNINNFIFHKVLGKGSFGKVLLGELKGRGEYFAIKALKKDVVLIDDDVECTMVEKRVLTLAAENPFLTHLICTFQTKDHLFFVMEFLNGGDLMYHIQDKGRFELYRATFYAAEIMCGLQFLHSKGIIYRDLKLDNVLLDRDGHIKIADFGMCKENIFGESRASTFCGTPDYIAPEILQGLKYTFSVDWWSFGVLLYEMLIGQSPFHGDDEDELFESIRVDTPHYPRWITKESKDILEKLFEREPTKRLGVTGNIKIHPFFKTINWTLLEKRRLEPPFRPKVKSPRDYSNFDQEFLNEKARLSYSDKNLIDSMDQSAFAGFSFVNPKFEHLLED
Sequence of Histone-lysine N-methyltransferase, H3 lysine-36 specific (Homo sapiens) (Q96L73 whole entry, the tested form may be a part): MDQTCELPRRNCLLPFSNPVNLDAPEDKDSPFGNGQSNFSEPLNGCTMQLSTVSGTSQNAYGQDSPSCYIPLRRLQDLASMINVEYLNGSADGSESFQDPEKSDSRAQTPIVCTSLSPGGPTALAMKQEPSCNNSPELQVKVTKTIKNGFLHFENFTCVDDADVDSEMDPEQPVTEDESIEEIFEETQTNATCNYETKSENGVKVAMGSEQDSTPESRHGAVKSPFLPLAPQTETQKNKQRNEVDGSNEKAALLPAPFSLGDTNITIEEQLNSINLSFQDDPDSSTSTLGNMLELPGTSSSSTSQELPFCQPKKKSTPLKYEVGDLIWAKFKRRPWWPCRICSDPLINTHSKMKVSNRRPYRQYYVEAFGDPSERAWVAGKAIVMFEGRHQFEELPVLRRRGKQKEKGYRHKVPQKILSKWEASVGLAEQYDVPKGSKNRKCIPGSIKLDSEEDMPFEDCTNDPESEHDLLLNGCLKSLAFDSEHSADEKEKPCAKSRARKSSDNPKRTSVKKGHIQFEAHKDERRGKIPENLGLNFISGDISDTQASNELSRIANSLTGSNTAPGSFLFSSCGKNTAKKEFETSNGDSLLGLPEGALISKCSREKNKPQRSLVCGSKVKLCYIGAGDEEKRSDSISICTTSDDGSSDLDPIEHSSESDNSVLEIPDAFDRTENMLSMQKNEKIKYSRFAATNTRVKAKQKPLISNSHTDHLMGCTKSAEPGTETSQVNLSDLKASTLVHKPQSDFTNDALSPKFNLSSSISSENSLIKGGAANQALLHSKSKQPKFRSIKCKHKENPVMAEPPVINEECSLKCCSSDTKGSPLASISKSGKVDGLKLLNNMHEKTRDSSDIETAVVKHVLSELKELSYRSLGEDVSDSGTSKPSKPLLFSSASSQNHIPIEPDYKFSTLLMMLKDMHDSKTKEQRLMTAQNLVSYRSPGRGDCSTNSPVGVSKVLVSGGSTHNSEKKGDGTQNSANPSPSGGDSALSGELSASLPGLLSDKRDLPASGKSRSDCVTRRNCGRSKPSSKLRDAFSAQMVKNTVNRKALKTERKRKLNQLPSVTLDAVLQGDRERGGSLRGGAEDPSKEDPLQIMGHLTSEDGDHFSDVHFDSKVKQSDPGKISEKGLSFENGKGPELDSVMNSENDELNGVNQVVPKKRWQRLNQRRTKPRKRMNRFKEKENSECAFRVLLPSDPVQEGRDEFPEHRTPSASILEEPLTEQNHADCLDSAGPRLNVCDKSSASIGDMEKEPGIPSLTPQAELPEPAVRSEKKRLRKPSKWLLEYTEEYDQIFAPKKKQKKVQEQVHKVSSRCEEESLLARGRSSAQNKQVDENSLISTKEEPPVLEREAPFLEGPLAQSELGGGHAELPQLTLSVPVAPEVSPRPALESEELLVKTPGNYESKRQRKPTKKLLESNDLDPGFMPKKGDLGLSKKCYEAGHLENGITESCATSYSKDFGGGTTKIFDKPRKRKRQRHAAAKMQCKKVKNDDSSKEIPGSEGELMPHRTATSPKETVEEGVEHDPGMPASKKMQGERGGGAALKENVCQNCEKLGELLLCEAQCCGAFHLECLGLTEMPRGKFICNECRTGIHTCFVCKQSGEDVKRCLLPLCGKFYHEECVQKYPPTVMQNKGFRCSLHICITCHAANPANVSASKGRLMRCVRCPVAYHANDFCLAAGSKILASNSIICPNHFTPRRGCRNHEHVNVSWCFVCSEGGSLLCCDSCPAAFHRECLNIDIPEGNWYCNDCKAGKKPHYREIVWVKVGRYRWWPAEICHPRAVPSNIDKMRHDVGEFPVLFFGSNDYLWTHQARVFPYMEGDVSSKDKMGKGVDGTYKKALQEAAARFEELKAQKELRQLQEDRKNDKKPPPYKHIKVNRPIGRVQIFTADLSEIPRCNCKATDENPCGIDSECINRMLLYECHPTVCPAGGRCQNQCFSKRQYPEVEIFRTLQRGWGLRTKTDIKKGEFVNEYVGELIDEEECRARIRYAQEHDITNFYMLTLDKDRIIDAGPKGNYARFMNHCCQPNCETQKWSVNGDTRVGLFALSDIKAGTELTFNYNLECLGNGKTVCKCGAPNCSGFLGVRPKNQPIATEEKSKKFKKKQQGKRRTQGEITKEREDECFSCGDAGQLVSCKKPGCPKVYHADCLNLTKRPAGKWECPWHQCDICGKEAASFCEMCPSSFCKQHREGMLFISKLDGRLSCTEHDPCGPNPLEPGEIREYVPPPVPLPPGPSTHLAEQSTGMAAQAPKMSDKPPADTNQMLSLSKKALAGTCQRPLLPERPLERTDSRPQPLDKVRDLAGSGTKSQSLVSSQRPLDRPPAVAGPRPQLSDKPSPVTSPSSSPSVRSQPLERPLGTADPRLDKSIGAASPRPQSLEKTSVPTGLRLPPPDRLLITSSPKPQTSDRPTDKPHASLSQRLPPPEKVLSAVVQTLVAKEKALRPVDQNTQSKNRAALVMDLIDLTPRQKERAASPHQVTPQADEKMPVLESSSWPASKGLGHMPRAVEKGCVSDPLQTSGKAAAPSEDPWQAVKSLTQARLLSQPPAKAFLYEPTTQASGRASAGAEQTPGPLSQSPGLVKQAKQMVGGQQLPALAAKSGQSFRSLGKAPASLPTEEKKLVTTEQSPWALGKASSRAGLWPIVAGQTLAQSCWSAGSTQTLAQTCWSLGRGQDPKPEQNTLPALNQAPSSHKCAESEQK
Sequence of Serine/threonine-protein kinase SIK1 (Homo sapiens) (P57059 whole entry): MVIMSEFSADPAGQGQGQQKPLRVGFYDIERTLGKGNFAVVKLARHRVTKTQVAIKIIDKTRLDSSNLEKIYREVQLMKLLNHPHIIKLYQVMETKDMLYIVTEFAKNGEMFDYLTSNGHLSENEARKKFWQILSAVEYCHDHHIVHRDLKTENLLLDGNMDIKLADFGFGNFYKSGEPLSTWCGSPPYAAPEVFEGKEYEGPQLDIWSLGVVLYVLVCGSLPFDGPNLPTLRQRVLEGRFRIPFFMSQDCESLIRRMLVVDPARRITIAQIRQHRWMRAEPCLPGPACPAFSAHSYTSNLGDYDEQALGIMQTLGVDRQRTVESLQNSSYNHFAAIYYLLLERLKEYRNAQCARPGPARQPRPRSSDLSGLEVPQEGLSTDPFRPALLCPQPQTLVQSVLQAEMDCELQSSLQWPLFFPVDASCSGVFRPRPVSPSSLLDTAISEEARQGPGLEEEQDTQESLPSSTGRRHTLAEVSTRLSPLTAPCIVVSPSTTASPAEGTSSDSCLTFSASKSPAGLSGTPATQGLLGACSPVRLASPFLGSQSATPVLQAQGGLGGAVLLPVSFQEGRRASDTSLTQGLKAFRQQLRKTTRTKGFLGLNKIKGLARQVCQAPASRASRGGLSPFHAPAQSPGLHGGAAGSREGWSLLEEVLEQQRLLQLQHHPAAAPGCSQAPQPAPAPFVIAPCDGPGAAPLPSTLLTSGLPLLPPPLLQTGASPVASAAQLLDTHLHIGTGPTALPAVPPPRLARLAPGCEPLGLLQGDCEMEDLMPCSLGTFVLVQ

In the case of `Cn1cc(Nc2nccc(N3CC4CCC(C3)N4C(=O)[C@@H]3CC3(F)F)n2)cn1`, the % of inhibition in test [1] was 77%. For the compound `CNC(=O)Nc1ccc(-c2nc(N3CC4CCC(C3)O4)c3cnn(C4CCC5(CC4)OCCO5)c3n2)cc1`, in test [2], the % of control is 79%.

In the case of `Cc1cc([C@@H](C)Nc2ccccc2C(=O)O)c2nc(N3CCOCC3)cc(=O)n2c1` [AZD-6482], in test [3], the % of control worked out at 100%.

In turn, `Cc1cc(F)c(C(=O)Nc2cccc(-c3nncn3C(C)C)n2)cc1-n1cnc(C2CC2)c1` had a % of control in test [4] of 100%.

Compound `Cc1cc(CN)cc(C)c1-c1ncn(C)c1-c1cncn1C` showed a dTagg in test [5] of 0.1 K. In turn, `Cc1ccc(-c2ccc3c(ccc4sc5c(c43)NC[C@@H](C)NC5=O)n2)cn1` registered a % of inhibition in test [6] of 18%.
